The values that follow are results of earlier work, collected in patent US11168091B2, “Quantification and preparation of pharmaceutical grade cantharidin” (priority 2015, dated 2021).

For the series the following is noted: properly stored in a cool and dry place away from strong light and heat; crude preparation of Table 6.

On to `CC12C(=O)OC(=O)C1(C)C1CCC2O1` (stereo not shown) [crude cantharidin, 1,2-Dimethyl-3,6-epoxyperhydrophthalic anhydride], for which the shelf life is given as 3 years.
